Data published in patent US12611411B2, “Triple-agent therapy for cancer treatment” (CYTOMETRIC THERAPEUTICS, INC., priority 2021, dated 2026).

How the values were obtained:
[1] = test system: live cancer cell cultures; experiment: Cytometric testing of the patient's cancer cells; assay type: cell-based, human; conditions: for activity in cytometric testing: Example 14, incompletely resected pancreatic cancer; for sensitivity in cytometric testing: Example 18, ascites of metastatic carcinoma of the urachus
Description: Also disclosed are methods for in vitro testing a drug combination on cancer cells of a subject for cancer cell survival, wherein the drug combination comprises tamoxifen, gefitinib, and vinorelbine. The in vitro testing can comprise administering tamoxifen and gefitinib prior to, together with, and/or after, administering vinorelbine. The in vitro testing can comprise measuring the cancer cell survival. Suitable in vitro tests and methods for measuring the cancer cell survival include Differential Staining Cytotoxicity Assay (DiSC), MTT assay, ATP assay, and fluorescein diacetate assay (FDA). MTT assay is a colorimetric assay for assessing cell metabolic activity. Cellular enzymes are capable of reducing the tetrazolium dye MTT 3-(4,5-dimethylthiazol-2-yl)-2,5-diphenyltetrazolium bromide to its insoluble formazan, which has a purple color. ATP assays are procedures that can measure cell viability based on detection of ATP. All living cells, including bacteria, can be detected with ATP assays. Several detection methods can be used, such as colorimetric, fluorescent and bioluminescent. FDA uses a cell-permeant esterase substrate fluorescein diacetate that can serve as a viability probe and that measures both enzymatic activity, which is required to activate its fluorescence, and cell-membrane integrity, which is required for intracellular retention of their fluorescent product.
Use of tamoxifen at a high dose of 80 milligrams per meter squared (the typical dose in conventional cancer treatment is 20 mg daily) and high dose of gefitinib (187 milligrams per meter squared twice daily for 3 days—the typical dose in conventional cancer treatment is 250 mg daily) has been found in cytometric testing using live cancer cell cultures to transport vinorelbine into the cancer cell, producing extraordinary synergy in causing programmed apoptosis in the cancer cells (programmed cancer cell death) while sparing much of the normal tissues and giving dramatic clinical outcomes.

[2] = test system: squamous cell carcinoma of the breast; experiment: TGV therapy case study, triple-negative squamous cell carcinoma of the breast (Example 11); assay type: in vivo, human; conditions: person, before TGV
Description: (§1) The 17 case studies represent patients with metastatic esophageal cancer, metastatic skin cancer, metastatic breast cancer, leptomeningeal breast cancer, metastatic prostate cancer, glioblastoma multiforme, lung cancer, bowel cancer, acute myelogenous leukemia, esthesioneuroblastoma, and urothelial cancer.

urothelial cancer = experiment: TGV therapy case study, urothelial cancer (Example 17); assay type: in vivo, human; conditions: person, before TGV (MVAC together with radiation therapy)
Description: as §1
A person with regionally advanced bladder cancer was presented with urothelial cancer in the trigone of their bladder. The patient was treated with radiation therapy and with dose dense MVAC (M—methotrexate, V—vinblastine, A—doxorubicin, C—Cisplatin). […] The patient was then treated with gemcitabine and cisplatin to which they had no response. The patient then had the retroperitoneal lymph nodes radiated to a complete response. The patient was followed monthly and when recurrent disease was discovered in the lung and mediastinum, they were started on Padcev® (Enfortumab vedotin), to which they had no response. The patient was then offered TGV. […] The patient had neutropenia within five days and was admitted. […] It was concluded that the patient should not be given repeated chemotherapy until their bone marrow had recovered.

| Compound | activity in cytometric testing [1] | response to prior chemotherapy [2] | sensitivity in cytometric testing [1] | response to prior therapy (urothelial cancer) |
| --- | --- | --- | --- | --- |
| O=c1[nH]cc(F)c(=O)[nH]1 [5-fluorouracil] | no evidence of response |  |  |  |
| COc1cccc2c1C(=O)c1c(O)c3c(c(O)c1C2=O)C[C@@](O)(C(=O)CO)C[C@@H]3O[C@H]1C[C@H](N)[C@H](O)[C@H](C)O1 [Adriamycin] |  | refractory |  |  |
| O=P1(N(CCCl)CCCl)NCCCO1 (stereo not shown) [Cytoxan] |  | refractory |  |  |
| CC(=O)O[C@@]12CO[C@@H]1C[C@H](O)[C@@]1(C)C(=O)[C@H](O)C3=C(C)[C@@H](OC(=O)[C@H](O)[C@@H](NC(=O)OC(C)(C)C)c4ccccc4)C[C@@](O)([C@@H](OC(=O)c4ccccc4)[C@H]21)C3(C)C [Taxotere] | no evidence of response | refractory |  |  |
| Nc1ccn([C@@H]2O[C@H](CO)[C@@H](O)C2(F)F)c(=O)n1 [gemcitabine] | no evidence of response |  | hypersensitivity |  |
| O=C1[O][Pt]2([NH][C@@H]3CCCC[C@H]3[NH]2)[O]C1=O [oxaliplatin] | no evidence of response |  | hypersensitivity |  |
| Enfortumab vedotin [Padcev®] |  |  |  | no response |
